The source of these data is patent publication US20240415972A1, “MICROFRAGMENTED FAT TISSUE AS DRUG DELIVERY SYSTEM IN LIVER CANCER THERAPY” (LIPOGEMS INTERNATIONAL S.P.A., priority 2021, published 2024).

For one series, the system named is Hep-3B cells. Kind of series: PTX anti-proliferative activity on Hep-3B cells in culture. It is filed as cell-based, human. As to the method:
In (A) PTX at different concentration from 0.1 to 1000 ng/ml was added to cultured Hep-3B cells After 72 hours of incubation cells were detached and counted. […] In (B) photographs (10× magnification) of Hep-3B cultured in presence of PTX showing its potent growth inhibition at concentration up to 25 ng/ml are reported.
To this end, different concentration of PTX (from 0.1 ng/ml to 1000 ng/ml) were added to culture medium.

Another series relates to MIB-1/Ki67. Kind of series: Immunohistochemistry of proliferation marker MIB-1/Ki67 in Hep-3B tumor of treated mice. It is filed as in vivo, athymic nude-Foxn1nu mice. The settings on record: DMFAT-PTX at both dosages; free PTX 10 mg/kg. As to the method:
After evaluation of conventional H&E stained, ten white sections were then obtained from each sample to be processed for immunohistochemical (IHC) staining. IHC was carried out automatically by means of Leica Bond MaxTM technology (Arginase, CK-PAN, CK7 and ANTI-EPATO) and Ventana Bench Mark Ultra (Ki-67): ANTI-HEPATO: antigen retrieval 30' EDTA, (dil. 1:300 clone […] Dako-Agilent); […] antigen retrieval 30' EDTA, (dil. 1:100 Clone SP156 Cell Marque […]. clone 30-9 Roche-Ventana); CK-PAN: antigen retrieval 5' Enzyma, (dil. 1:200 clone MNF116 Dako Agilent); CK-7: antigen retrieval 15' EDTA, dil. 1:100 clone OV-TL 12/20 Dako Agilent. All section stained was evaluated on NIKON ECLIPSE E 600 Microscopy equipped with OLYMPUS DP21 Camera.

The next series deals with Hep-3B tumor. Put plainly: In vivo anti-tumor activity, single-shot local injection next to sc Hep-3B tumor.

Values after ≈ are worked out from the molar mass of the structure shown. Like-named read-outs stand apart in the source and are kept apart here.

One may read the IC50 as the midpoint of a concentration-inhibition curve. The term IC90 denotes the concentration needed for an effect of 90%. Regarding `CC(=O)O[C@H]1C(=O)[C@@]2(C)[C@H]([C@H](OC(=O)c3ccccc3)[C@]3(O)C[C@H](OC(=O)[C@H](O)[C@@H](NC(=O)c4ccccc4)c4ccccc4)C(C)=C1C3(C)C)[C@]1(OC(C)=O)CO[C@@H]1C[C@@H]2O` [PTX, Paclitaxel], in the series on Hep-3B cells (72 hours of incubation, cells detached and counted), the “IC50, dose of PTX required to reduce 50% Hep-3B growth” value amounted to 0.015 ± 0.003 µg/mL. For the same compound, the half-inhibitory concentration (IC50) with Hep-3B cells (Homo sapiens, Hep3B, read-out: IC50, dose of PTX required to reduce 50% Hep-3B growth, 72 hours of incubation, cells detached and counted) was found to be 0.015 ± 0.002 µg/mL (≈ 0.0176 µM); in the series on Hep-3B cells (Homo sapiens, Hep3B, restated for comparison with tissue concentrations, read-out: IC50 of the PTX on Hep-3B cells) it was 0.015 µg/mL (≈ 0.0176 µM). For the same compound, in the series on Hep-3B cells (Homo sapiens, Hep3B, read-out: IC90, dose of PTX required to reduce 90% Hep-3B growth, 72 hours of incubation, cells detached and counted), the IC90 was 0.025 ± 0.008 µg/mL (≈ 0.0293 µM). For the same compound, the “Ki67 expression in tumor” value in the series with MIB-1/Ki67 is recorded as “Some reduction”. Also, the “Skin lesions / ulceration at the site of injection” value with Hep-3B tumor (10 mg/kg (200 μg/200 μl), local sc injection) is “did not induce skin ulcers”. Further, the “Effect on tumor growth compared to CTRL” value with Hep-3B tumor (series A: 200 μl, PTX 10 mg/kg where present) is listed as “No significant effect”. In the series on Hep-3B tumor (series A: PTX 200 μg (10 mg/kg) where present, tumor-free after 90 days), the “% of mice cured” value came out at 0%. Besides, the Day of sacrifice with Hep-3B tumor (series A: single shot 200 μl, PTX 200 μg (10 mg/kg) where present) stood at 33 ± 3. Besides, the “% of mice tumor-free” value with Hep-3B tumor (series A: single shot 200 μl, PTX 200 μg (10 mg/kg) where present, at 60 days) was found to be 0%. Moreover, in the series on Hep-3B tumor (series A: single shot 200 μl, PTX 200 μg (10 mg/kg) where present, tumor weight at sacrifice), the “HCC (TW) (Grams ± SD)” value is reported as 2.010 ± 0.377 Grams.
